{
  "source": "patent US5001064A",
  "about": "“Phosphatidylinositol 4-kinase” (Washington University, priority 1988, dated 1991)",
  "key": {"PtdIns 4-kinase [1]": {"molecular_target": "T1, PtdIns 4-kinase (Bos taurus, UniProt A6QLN5)", "T1 construct": "It constitutes the major PtdIns 4-kinase activity of bovine uteri; from tissue; host or cells: bovine uterus (acetone powder, purified over ammonium sulfate, Mono Q, S-Sepharose, Mono Q, Mono P and hydroxylapatite)", "T1 sequence (A6QLN5 1-479)": "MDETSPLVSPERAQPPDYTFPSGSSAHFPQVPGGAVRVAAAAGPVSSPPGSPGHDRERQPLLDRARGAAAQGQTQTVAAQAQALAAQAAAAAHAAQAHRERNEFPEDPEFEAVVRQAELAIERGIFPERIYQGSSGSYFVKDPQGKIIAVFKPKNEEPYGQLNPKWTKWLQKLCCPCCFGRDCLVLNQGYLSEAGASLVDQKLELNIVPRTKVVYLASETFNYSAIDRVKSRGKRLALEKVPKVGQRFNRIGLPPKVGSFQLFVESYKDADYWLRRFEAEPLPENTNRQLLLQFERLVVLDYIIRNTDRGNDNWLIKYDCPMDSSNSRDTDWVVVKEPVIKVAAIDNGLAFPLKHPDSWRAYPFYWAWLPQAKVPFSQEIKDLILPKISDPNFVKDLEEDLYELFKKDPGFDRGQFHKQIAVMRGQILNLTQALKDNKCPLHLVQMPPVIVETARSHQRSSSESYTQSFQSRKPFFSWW", "assay": "PtdIns 4-kinase activity assay: kinetic parameters, specific activity, pH optimum", "assay_type": "biochemical, bovine", "conditions": "for Km: assuming a molecular weight of 835.2 for PtdIns, read-out: apparent Km for PtdIns", "description": "(§1) PtdIns 4-kinase activity was assayed in 60 μl at 30° C. in 20 mM BisTris-HCl (pH 7.0), 10 mM MgCl2, 1.0% Triton X-100, 0.25 mg/ml phosphatidylinositol, and 150 μM ATP (1.25 μCi[-^32 P]ATP), unless otherwise noted. The reaction was terminated by the addition of 12 μl of cold HCl, 120 μl of cold methanol, 150 μl of chloroform, and 40 μl of H2 O. The extracted samples were centrifuged at 12,000 × g for 1 min. and the aqueous layer removed and discarded. When needed, the organic phase was washed with 40 μl of cold methanol and 40 μl of cold 1.0 N HCl, centrifuged at 12,000 × g, and the aqueous layer was removed. The organic phase was then dried under vacuum in a Savant speed-vac, resuspended in 40 μl of chloroform/methanol (2:1), and chromatographed on potassium oxalate-impregnated Silica Gel 60 thin layer chromatography plates (TLC). The solvent system used consisted of chloroform/methanol/ammonium hydroxide/water (51:39.6:3:8.4). For two-dimensional thin layer chromatography, the preceding solvent system was used for the first dimension, and chloroform/methanol/acetic acid/water (50:39:1:10) was used for the second dimension. Standards were visualized by exposing the TLC plate to iodine vapor. The reaction product, phosphatidylinositol 4-phosphate, was visualized by autoradiography, and the corresponding area of the TLC plate was scraped and quantitated by Cherenkov counting. This assay was linear with respect to both protein concentration and time. For tests utilizing [^3 H]PtdIns, the corresponding areas of the TLC plates were scraped and the silica powder was suspended in a gel of Aquasol/H2 O (4:1) before counting. All assays (except column fractions) were done in duplicate or triplicate.\nThe purified PtdIns 4-kinase was used to determine the kinetic parameters of this enzyme for ATP and PtdIns. Optimal enzymatic activity was found at concentrations of ATP above 100 μM. […] In order to avoid potential effects on enzymatic activity due to changes in the Triton X-100/PtdIns micelles used as substrate, a constant molar ratio of Triton X-100 to PtdIns was used, and the concentration of Triton X-100 was maintained above its critical micellar concentration. […] The different Vmax values may be explained by the fact that the ATP substrate saturation curve was performed at a pH of 7.4 rather than 7.0.\nIn order to optimize the assay of this enzyme, the pH optimum for Ptdlns 4-kinase was determined. This enzyme was optimally active in the pH range of 6.0-7.0 (FIG. 4). Above a pH of 7.0 and below a pH of 6.0 the activity of this enzyme decreased sharply."}, "PtdIns 4-kinase [2]": {"molecular_target": "T1, PtdIns 4-kinase", "assay": "Specificity of PtdIns 4-kinase for a nucleotide phosphoryl donor ([3H]PtdIns as substrate)", "assay_type": "biochemical, bovine", "description": "as §1, with “This assay was linear with respect to both protein concentration and time.” left out"}, "PtdIns 4-kinase [3]": {"molecular_target": "T1, PtdIns 4-kinase", "assay": "Influence of divalent cations (Mg2+, Ca2+) on PtdIns 4-kinase activity", "assay_type": "biochemical, bovine", "description": "as §1, with “The” for “PtdIns 4-kinase activity was assayed in 60 μl at 30° C. in 20 mM BisTris-HCl (pH 7.0), 10 mM MgCl2, 1.0% Triton X-100, 0.25 mg/ml phosphatidylinositol, and 150 μM ATP (1.25 μCi[-^32 P]ATP), unless otherwise noted. The”, “The solvent system used consisted of chloroform/methanol/ammonium hydroxide/water (51:39.6:3:8.4).” left out, “This assay was linear with respect to both protein concentration and time.” left out"}, "[4]": {"tested_on": "PtdIns 4-kinase/PtdIns-4-P 5-kinase purified from bovine brain myelin", "conditions": "Saltiel et al., Biochem. J. 241, 759-763 (1987); cited from earlier work"}, "[5]": {"conditions": "nonlinear regression, Hill equation"}},
  "note": "pIC50: −log10 of the molar value. “And” between values parts separate entries of the source, which are not always exact repeats. Identical values can stand only once. “Also recorded” adds a separate entry of the source. Like-named read-outs stand apart in the source and are kept apart here.",
  "data": [
    {"molecule": "Nc1ncnc2c1ncn2[C@@H]1O[C@H](COP(=O)(O)OP(=O)(O)OP(=O)(O)O)[C@@H](O)[C@H]1O", "note": "[ATP]", "values": [
      {"measurement": "ATP concentration for optimal enzymatic activity", "setting": "PtdIns 4-kinase [1]; FIG. 3A", "result": "above 100 μM"},
      {"measurement": "Vmax, ATP concentration varied", "setting": "PtdIns 4-kinase [1]; pH 7.4", "result": 2.2, "unit": "µmol/mg/min"},
      {"measurement": "utilization as phosphoryl donor (words)", "setting": "PtdIns 4-kinase [2]; [3H]PtdIns as substrate", "result": "utilized; also recorded: will utilize"},
      {"measurement": "activity at 150 µM", "setting": "PtdIns 4-kinase [2]; read-out: Relative activity with nucleotide donor", "result": 100, "unit": "%"}
    ]},
    {"molecule": "[Ca+2]", "note": "[Ca^2+]", "values": [
      {"measurement": "pIC50", "setting": "PtdIns 4-kinase [3]; 100 μM ATP, 100 μM EGTA, FIG. 6, read-out: free Ca2+ concentration giving 50% inhibition", "result": "~3.52"}
    ]},
    {"molecule": "[Mg+2]", "note": "[Mg^2+]", "values": [
      {"measurement": "Hill coefficient of Mg2+ dependence", "setting": "PtdIns 4-kinase [3]; [5]", "result": 1.9},
      {"measurement": "Ks of Mg2+ dependence", "setting": "PtdIns 4-kinase [3]; [5]", "result": 0.36}
    ]},
    {"molecule": "phosphatidylinositol [PtdIns]", "values": [
      {"measurement": "Km", "setting": "[4]", "result": 400, "unit": "µM"},
      {"measurement": "PtdIns concentration for saturation of enzyme activity", "setting": "PtdIns 4-kinase [1]; FIG. 3B", "result": "above 0.2 mg/ml"},
      {"measurement": "Km", "setting": "PtdIns 4-kinase [1]; listed as phosphatidylinositol (PtdIns)", "result": "~26", "unit": "µM"},
      {"measurement": "Km", "setting": "PtdIns 4-kinase [1]", "result": "26 µM and ~26 µM"},
      {"measurement": "Vmax, PtdIns concentration varied", "setting": "PtdIns 4-kinase [1]; pH 7.0", "result": 3.3, "unit": "µmol/mg/min"},
      {"measurement": "apparent Km for PtdIns", "setting": "PtdIns 4-kinase [1]; purified enzyme, pH 7.0 (Tris-HCl), constant Triton X-100/PtdIns ratio", "result": 22, "unit": "µg/mL"}
    ]}
  ]
}
